The subject of one series is primary microglia. Description: Morphometry of microglia activation (Isolectin B4 staining, cell size). The series is classed as cell-based, mouse. As to conditions: for effect on LPS-mediated microglia activation: LPS 1 μg/mL. The protocol:
Culture of primary microglia cells. Microglia were isolated from cultures of mixed cortical cells as described (59). In brief, cortices from P1 mice were isolated and digested with trypsin (0.4%) for 20 minutes at 37° C. Cells from 4 pups were plated onto PDL-coated 75 cm2 tissue-culture flasks. The culture medium (DMEM, 10% heat-inactivated FBS, and 1% Pen/Strep) was changed on day 2. After 2-3 weeks in culture, the microglia were removed by the addition of 12 mM lidocaine (Sigma-Aldrich, St. Louis, Mo.) and orbital shaking (180 rpm) for 20 minutes at 37° C. The cells were centrifuged (350×G) and the pellet was resuspended in complete medium and plated onto PDL-coated tissue culture dishes. Microglia cell cultures were >95% pure as determined with three different markers, IsoB4, IBA-1 and CD11b. To immobilize fibrinogen, tissue culture dishes were incubated overnight with 50 μg/mL fibrinogen (Calbiochem, San Diego, Calif.) in 20 mM Tris (pH 7.5) and 0.1 M NaCl at 37° C. for all fibrinogen treatments. To serve as positive controls, LPS (Sigma-Aldrich, St. Louis, Mo.) was added to the media at 1 μg/mL.
Morphometry. Primary microglia were used for all morphologic analysis. Cells were plated on coated fibrinogen or in the presence of LPS for 72 hours. Microglia were fixed with methanol and immunostained with Isolectin B4 (1:300, Sigma-Aldrich, St. Louis, Mo.). Activated microglia were quantificated as those cells larger than 2,000 μm^2. Blocking experiments involved the daily administration of rat anti-CD11b (10 μg/mL, eBioscience, San Diego, Calif.), γ^377-395 peptide (200 μM) or rat IgG (10 μg/mL, Jackson ImmunoResearch Laboratories, West Grove, Pa.). Results were obtained from six separate experiments performed in duplicates. 250 cells per condition were counted for each individual experiment. Statistical calculations were made by using Student's t test.

The subject of series [1] is PLP139-151 EAE in SJL/J mice. Description: Remitting-relapsing PLP139-151 EAE, intranasal γ^377-395 peptide after first paralytic episode. The class given is in vivo, mouse. The protocol:
Induction of EAE. EAE was induced in 6 week old female SJL/J or C57BL/6 mice by subcutaneous immunization with 150 μg PLP139-151 (HSLGKWLGHPDKF) (SEQ ID NO: 5). American Peptide Company and Azco Pharmchem, San Jose, Calif.) or 50 μg MOG35-55 ([…]) (SEQ ID NO: 6), Sigma-Aldrich, St. Louis, Mo.) in complete Freund's adjuvant (Sigma-Aldrich, St. Louis, Mo.) supplemented with […] heat inactivated mycobacterium tuberculosis H37Ra (Difco Laboratories, Detroit, Mich.). Mice were injected intravenously with 200 ng pertussis toxin (Sigma-Aldrich, St. Louis, Mo.) on days 0 and 2 of the immunization. Mice were scored daily. 0: no symptoms, 1: loss of tail tone, 2: ataxia, 3: hindlimb paralysis, 4: hindlimb and forelimb paralysis, 5: moribund Data are represented as the mean clinical score and are mean±SEM. Statistical calculations were made by using Student's t test.
Intranasal γ^377-395 peptide administration. Fibrinogen γ^377-395 peptide (YSMKETTMKIIPFNRLSIG) (SEQ ID NO: 2), Azco Pharmchem, San Jose, Calif.) was resuspended in 0.9% NaCl at a concentration of 3 mg/mL. Peptides were aliquoted as single doses and stored at […]. Mice were administered 5 μL of peptide or 0.9% NaCI, as a control, in each nare daily using a P10 micropipettor (Gilson, Middleton, Wis.) beginning after the peak of the first paralytic episode.
Histopathology. Histopathologic analysis and quantification of inflammation and demyelination in mouse tissue was performed on cryostat or paraffin sections as described (57). Sections were stained with luxol fast blue and nuclear red. Spinal cord sections were fixed with 2% PFA for 10 minutes at 4° C. and immunostained with a sheep anti-fibrinogen antibody (1:200, US Biological, Swampscott, Mass.), rat anti-CD11b (1:5, Chemicon), von Willebrand Factor (1:1000, Dakocytomation, Glostrup, Denmark), iNOS (polyclonal Chemicon, Temecula, Calif., 1:750), Mac-3 (rat-anti-mouse, Pharmingen, San Diego, Calif., 1:200), CNPase (monoclonal, Sternberger monoclonals, Lutherville, Md., 1:2000). For human MS, paraffin embedded material was obtained from the Archives of the Center for Brain Research, Medical University of Vienna. Double immunofluorescence was performed with antibodies against CD68 and fibrin. Images were collected using an Axioplan 2 Zeiss microscope with an Axiocam HRc camera or were processed for confocal microscopy using Olympus and Zeiss confocal microscopes.
Rotarod behavior test. The rotarod assay was performed on a TSE accelerating Rotarod apparatus (TSE Technical and Scientific Equipment GmbH) as described (58). Rotarod assays were conducted with a 300 second maximum time limit and means were collected for at least three trials. Statistical calculations were made by using Students t test.

Another series relates to blood coagulation. Description: Hematological analyses: plasma clotting time and prothrombin time after intranasal peptide. As to conditions: 30 μg and 90 μg intranasally daily for seven days. The class given is in vivo, mouse. The procedure:
Hematological Analyses. Citrated plasma was prepared from mice administered intranasally 30 μg or 90 μg of γ^377-395 peptide or saline control daily for seven days. Plasma clotting times were measured by combining 10 μl of citrated plasma with 10 μl of 2 U/ml bovine thrombin (Enzyme Research Laboratories, South Bend, Ind., USA) and 40 mM. CaCl2 in a weigh boatfloating in a 37° C. water bath. Time to clot was determined by mixing with a toothpick. Plasma thrombin times were established as described previously (15). Fibrin polymerization was evaluated by standard turbidity assays using plasma. Briefly, citrate plasma (diluted tenfold in 20 mM HEPES, pH 7.4, containing 0.15 M NaCl and 5 mM-amino caproic acid) was combined with bovine thrombin (final concentration 0.2 U/ml; Enzyme Research Laboratories, South Bend, Ind., USA), and Ca^2+ (10 mM), and OD350 measurements were taken every 30 seconds.

For a further series, the target named is Mac-1 (Homo sapiens, UniProt P11215). As to conditions: from cited biochemical studies; cited from earlier work.
The mark [2] stands for this setting: 30 μg i.n. daily, day 30 after immunization.

“Also recorded” adds a separate entry of the source.

On to “tyr-ser-met-lys-lys-thr-thr-met-lys-ile-ile-pro-phe-asn-arg-leu-thr-ile-gly (YSMKKTTMKIIPFNRLTIG) (listed as Homo sapiens) [γ^377-395 peptide]”, for which, in the series on primary microglia, the “effect on LPS-mediated microglia activation” value is listed as “did not inhibit”. In addition, the “effect on LPS-mediated microglia activation” value with primary microglia (listed as γ^377-395) is on record as “has no effect”. For the same substance, in the series on primary microglia (M1/70 10 μg/mL or γ^377-395 peptide 200 μM daily, fibrinogen alone 71±4.9%), the “% of activated microglia in fibrinogen treated cells in the presence of blocker” value was 38.3±9.8%. For the same substance, the “fibrinogen-induced morphologic activation of microglia (in words)” value with primary microglia (added to microglia on immobilized fibrinogen) is “attenuated”. In the series on primary microglia (peptide 200 μM), the “effect on activation state of untreated microglia” value is given as “did not affect”. Also, the “increase of motor functions vs control mice” value in series [1] (30 μg i.n. daily, after the first relapse on day 29) amounted to 1.4 fold. In addition, in series [1] (setting [2]), the “reduction in Mac-3 (microglia/macrophage marker) immunostaining” value came to 2 fold and the “reduction in iNOS immunostaining” value turned out to be 4.2 fold. Besides, the “relapse of paralysis (clinical score)” value in series [1] (30 μg intranasally daily after first paralytic episode, n=14 vs control n=13) is recorded as “did not show a relapse”. The T cell infiltration entry in series [1] (peptide-treated vs control) is “no major differences”. In addition, in the series on blood coagulation, the “in vivo blood clotting time” value is on record as “does not affect; also recorded: Neither dose affected” and the prothrombin time entry was “does not affect; also recorded: Neither dose affected”. Moreover, in the series with Mac-1, the “blocking of fibrin(ogen) binding to Mac-1 (CD11b)” value was “blocks”.

Values taken from patent publication US8569242B2, “Method of treating degenerative disorders of the nervous system” (The Regents of the University of California, priority 2005, dated 2013).
